Experimental data from article PMC10817943 (Nature Communications, 2024).
Converted amounts (≈) assume the structure as drawn. “And” between values parts separate entries of the source, which are not always exact repeats. Equal entries are not always repeated. Where two headings read alike, the source gives them in different places. Numbered stars: 1 amine (or outer) side, 2 acyl side, 3 side chain; on linkers, the order of the positions; unused ones are H or OH. Bridge positions count the residues as written; N and C are the ends. Square brackets hold non-standard residues; d marks the D form. Ends that are not written are not given here. Peptide text beside a SMILES is read from it. * marks the point of attachment. ξ: configuration not given here. X2 = CCCC1CC(C(=O)[*:2])N([*:1])C1; Butanoyl(2-oxo) = CCC(=O)C(=O)*; NMeAhp(2) = CCCCC[CH](NC)C(=O)O; ξPro(4ξ-Me) = CC1CNC(C(=O)O)C1; NMeT = CN[CH](C(=O)O)[CH](C)O; NMeL = CN[CH](CC(C)C)C(=O)O; hLeu = CC(C)CC[CH](N)C(=O)O; NMeV = CN[CH](C(=O)O)C(C)C

T1: M. smegmatis DnaN (DNA polymerase III sliding clamp) (M. smegmatis mc^2155, UniProt A0QND6 1-397, labeled using Monolith Series Protein Labeling Kit BLUE-NHS)
T1 construct: also called msDnaN; DnaN from M. smegmatis mc^2155
T1 sequence (looked up): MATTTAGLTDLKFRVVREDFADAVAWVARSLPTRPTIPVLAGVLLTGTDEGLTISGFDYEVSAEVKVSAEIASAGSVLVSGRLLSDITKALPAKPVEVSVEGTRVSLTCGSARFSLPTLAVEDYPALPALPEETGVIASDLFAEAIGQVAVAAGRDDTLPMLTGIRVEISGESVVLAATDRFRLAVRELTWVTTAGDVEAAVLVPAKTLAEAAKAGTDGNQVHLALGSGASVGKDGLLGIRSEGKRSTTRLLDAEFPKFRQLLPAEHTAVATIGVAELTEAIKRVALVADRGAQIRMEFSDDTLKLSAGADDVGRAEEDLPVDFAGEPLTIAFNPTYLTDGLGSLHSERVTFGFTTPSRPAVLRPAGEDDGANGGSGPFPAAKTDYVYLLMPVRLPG


Legend:
[1] = system: M. tuberculosis (Mtb) strain H37Ra; assay: microbe, parasite or virus in culture; format: cell-based; details: Mycobacterium tuberculosis, read-out: MIC Mtb H37Ra
[2] = system: M. tuberculosis (Mtb) strain H37Rv; assay: microbe, parasite or virus in culture; format: cell-based, Mycobacterium tuberculosis; details: Mycobacterium tuberculosis, H37RV
[3] = system: M. smegmatis (Msmeg) strain mc^2155; assay: microbe, parasite or virus in culture; format: cell-based; details: Mycolicibacterium smegmatis, MC^2155, read-out: MIC M. smegmatis mc^2155
[4] = system: M. smegmatis mc^2155 GM^R; assay: microbe, parasite or virus in culture; format: cell-based; details: Mycolicibacterium smegmatis, MC^2155, read-out: MIC M. smegmatis mc^2155 GM^R
[5] = system: M. marinum (Mm) strain M (ATCC BAA-535); assay: microbe, parasite or virus in culture; format: cell-based; details: Mycobacterium marinum, ATCCBAA535, read-out: MIC M. marinum strain M
[6] = system: CHO-K1 cells; assay: cells; format: cell-based, Chinese hamster (Cricetulus griseus); details: Cricetulus griseus, CHO-K1, 120 h, read-out: IC50 CHO-K1
[7] = target: M. smegmatis DnaN (msDnaN) (Mycolicibacterium smegmatis, UniProt A0QND6); assay: biochemical; format: binding; details: for Response (Average): MST source data, runs #1-#3, listed as MP B
[8] = system: S. aureus Newman; assay: microbe, parasite or virus in culture; format: cell-based; details: Staphylococcus aureus, read-out: MIC S. aureus Newman
[9] = system: B. subtilis DSM 10; assay: microbe, parasite or virus in culture; format: cell-based; details: Bacillus subtilis, DSM10, read-out: MIC B. subtilis DSM 10
[10] = system: E. coli BW25113; assay: microbe, parasite or virus in culture; format: cell-based; details: Escherichia coli, BW25113, read-out: MIC E. coli BW25113
[11] = system: C. freundii DSM 30039; assay: microbe, parasite or virus in culture; format: cell-based; details: Citrobacter freundii, DSM30039, read-out: MIC C. freundii DSM 30039
[12] = system: A. baumannii DSM 30008; assay: microbe, parasite or virus in culture; format: cell-based; details: Acinetobacter baumannii, DSM30008, read-out: MIC A. baumannii DSM 30008
[13] = target: T1, M. smegmatis DnaN (DNA polymerase III …); assay: MST; msDnaN labeled (BLUE-NHS) at 50 nM; compounds titrated in 16 serial dilution steps, triplicates; 20 mM Tris, 150 mM NaCl, 0.05% Tween-20; Monolith NT-115; details: both partners purified

Molecule | MIC [1] | MIC ([2]; read-out: MIC Mtb H37Rv) | MIC [3] | MIC [4] | MIC [5] | IC50 [6] | Kd [7] | MIC [8] | MIC [9] | MIC [10] | MIC [11] | MIC [12] | other results
CCC(=O)C(=O)N(C)C(C(=O)N1CC(C)CC1C(=O)N(C)C1C(=O)NC(CC(C)C)C(=O)N2CC(C)CC2C(=O)NC(CCC(C)C)C(=O)N(C)C(C(C)C)C(=O)N2CCCC2C(=O)N(C)C(CC(C)C)C(=O)NCC(=O)OC1C)C(C)C (centres unmarked) [Mycoplanecin B] | 0.1 µg/mL (≈ 0.0855 µM) | 0.43 µg/mL (≈ 0.368 µM) | 0.5 µg/mL (≈ 0.428 µM) | 8 µg/mL (≈ 6.84 µM) | 2 µg/mL (≈ 1.71 µM) | > 37 µg/mL | 24.4 ± 11.9 nM | > 64 µg/mL | > 64 µg/mL | > 64 µg/mL | > 64 µg/mL | > 64 µg/mL | Response (Average) ([7]; Dose 1.22E-08 (unit not given)): 897.348 and 900.943 and 911.516; Response (Average) ([7]; Dose 1.25E-05 (unit not given)): 906.572 and 909.169 and 909.706; Response (Average) ([7]; Dose 1.53E-09 (unit not given)): 896.843 and 900.134 and 899.613; Response (Average) ([7]; Dose 1.56E-06 (unit not given)): 907.358 and 910.005 and 911.362; Response (Average) ([7]; Dose 1.95E-07 (unit not given)): 905.084 and 913.604 and 911.242; Response (Average) ([7]; Dose 2.44E-08 (unit not given)): 897.582 and 904.128 and 903.123; Response (Average) ([7]; Dose 2.50E-05 (unit not given)): 906.786 and 911.734 and 910.009; Response (Average) ([7]; Dose 3.05E-09 (unit not given)): 897.958 and 898.601 and 900.671; Response (Average) ([7]; Dose 3.13E-06 (unit not given)): 907.585 and 910.886 and 909.908; Response (Average) ([7]; Dose 3.91E-07 (unit not given)): 908.074 and 910.248 and 909.115; Response (Average) ([7]; Dose 4.88E-08 (unit not given)): 897.616 and 904.939 and 909.25; Response (Average) ([7]; Dose 5.00E-05 (unit not given)): 906.528 and 909.788 and 910.069; Response (Average) ([7]; Dose 6.10E-09 (unit not given)): 894.937 and 899.128 and 901.665; Response (Average) ([7]; Dose 6.25E-06 (unit not given)): 905.496 and 910.338 and 909.682; Response (Average) ([7]; Dose 7.81E-07 (unit not given)): 907.246 and 909.231 and 910.996; Response (Average) ([7]; Dose 9.77E-08 (unit not given)): 902.534 and 911.539 and 911.215
CCCCCC1C(=O)NCC(=O)OC(C)C(N(C)C(=O)C2CC(CCC)CN2C(=O)C(C(C)C)N(C)C(=O)C(=O)CC)C(=O)NC(CC(C)C)C(=O)N2CC(C)CC2C(=O)NC(CCC(C)C)C(=O)N(C)C(C(C)C)C(=O)N2CCCC2C(=O)N1C (centres unmarked) [Mycoplanecin E] ({Butanoyl(2-oxo)}-[NMeV][X2][NMeT]L[ξPro(4ξ-Me)][hLeu][NMeV]P[NMeAhp(2)]G; ester 3-C; configuration not given here) | 0.03 µg/mL (≈ 0.0248 µM) | 0.083 µg/mL (≈ 0.0685 µM) | 0.125 µg/mL (≈ 0.103 µM) | – | 0.5 µg/mL (≈ 0.413 µM) | > 37 µg/mL | 64.4 ± 33.2 nM | > 64 µg/mL | > 64 µg/mL | > 64 µg/mL | > 64 µg/mL | > 64 µg/mL | MIC ([2]; read-out: minimum inhibition concentration against Mycobacterium tuberculosis): 0.083 µg/mL (≈ 0.0685 µM)
CCCC1CC(C(=O)N(C)C2C(=O)NC(CC(C)C)C(=O)N3CC(C)CC3C(=O)NC(CCC(C)C)C(=O)N(C)C(C(C)C)C(=O)N3CCCC3C(=O)N(C)C(CC(C)C)C(=O)NCC(=O)OC2C)N(C(=O)C(C(C)C)N(C)C(=O)C(=O)CC)C1 (centres unmarked) [Mycoplanecin D] ({Butanoyl(2-oxo)}-[NMeV][X2][NMeT]L[ξPro(4ξ-Me)][hLeu][NMeV]P[NMeL]G; ester 3-C; configuration not given here) | 0.05 µg/mL (≈ 0.0418 µM) | 0.17 µg/mL (≈ 0.142 µM) | 0.25 µg/mL (≈ 0.209 µM) | 8 µg/mL (≈ 6.68 µM) | 1 µg/mL (≈ 0.835 µM) | > 37 µg/mL | 134 ± 69.3 nM | > 64 µg/mL | > 64 µg/mL | > 64 µg/mL | > 64 µg/mL | > 64 µg/mL | –
VPTLPLVPLG (also: macrocycle, 4-methylproline twice, positions not placed) [griselimycin] | – | – | – | – | – | – | – | – | – | – | – | – | Kd [13]: 6.5 nM
